Patent US11400059B2, “Treatment of pain and/or pain related symptoms associated with dysmenorrhea” (ALYRA BIOTECH PTY LTD, priority 2017, dated 2022)

Tests used:
[1] = tested on: spinal glial cells in the dorsal horn of the spinal cord; assay: Spinal glial activation (astrocytes and microglia) after intrauterine LPS, overall statements; format: in vivo, mouse (Balb/C); details: for spinal glial activation induced by intrauterine LPS: intrauterine co-administration with LPS
Excerpt: In the model, we investigated whether intrauterine LPS administration would cause an activation of the innate immune system in the uterus, replicating the inflammation often seen in dysmenorrhea, with possible association with pain. As inflammation is intrinsically linked with pain, we investigated whether activation of the innate immune system in the uterus would induce activation of spinal glial cells (central nervous system immune cells) in the dorsal horn of the spinal cord. Spinal glial cells include astrocytes and microglia. Activation of spinal glial cells was assessed using immunoflourescent staining with GFAP (astrocytes) or Iba1 (microglia). We then investigated if spinal glial activation is attenuated by the innate immune system blocking drugs amitriptyline and TAK-242.
(§1) Group 1 included twelve mice with 20 μl endotoxin-free saline introduced to the uterus on the first day of estrus and the subsequent day over 3 consecutive estrous cycles. Group 2 included twelve mice with LPS (100 μg/kg) instilled in the uterus on the first day of estrus and saline injected on the subsequent day over 3 consecutive estrous cycles. Group 3 included twelve mice with LPS (100 μg/kg) mixed with amitriptyline (20 μl of a 100 μM solution, equivalent to 28 μg/kg) instilled in the uterus on the first day of estrus, and amitriptyline alone instilled on the subsequent day over 3 consecutive estrous cycles. Group 4 included 14 mice with LPS (100 μg/kg) mixed with TAK-242 (20 μl of a 100 μM solution, equivalent to 36 μg/kg) instilled on the first day of estrus and TAK-242 alone instilled on the subsequent day over 3 consecutive estrous cycles.
Determination of spinal glial response was then assessed using immunofluorescence to confirm the validity of the experimental model.
Determination of the ability of TLR4 antagonists to block the activation of spinal astrocytes and microglia induced by intra-uterine instillation of LPS was assessed.
An assessment of glial activation was made using immunochemistry techniques including Ionized calcium binding adaptor molecule 1 (Iba1) expression and glial fibrillary-associated protein (GFAP) variability in the dorsal horn. Iba1 expression is a marker for microglial activation, and GFAP is a marker for astrocyte activation. The spinal cord levels chosen are consistent with the level of spinal afferent neurons associated with the pelvis, including the uterus in the mouse.

[2] = tested on: mice with intrauterine LPS; assay: Facial Grimace Scale 24 hours after final LPS stimulation; format: in vivo, mouse (Balb/C); details: LPS in conjunction with amitriptyline or TAK242, 24 hours after final LPS stimulation
Description: as §1
24 hours following the final LPS stimulation mice were subjected to assessment for the presence or absence of pain. This was assessed using the following tests:
Facial Grimace Scale: Photos of mice in their home cage will be taken, to score their facial Grimace and this was quantified and compared between groups. For further information see: http://www.nature.com/nmeth/journal/v7/n6/full/nmeth.1455.html.

Human NOD2 = molecular target: T1, Human NOD2 (Homo sapiens, UniProt Q9HC29); assay: Human NLR antagonist screening, NF-κB SEAP reporter in HEK293 cells; format: cell-based; details: antagonist mode, Ami 1 μM, +L18-MDP 50 ng/mL, No Sample 18, Control− 1
T1 construct: expressed in transfected cells; host or cells: HEK293
Description: Toll-Like Receptor (TLR), NOD-Like Receptor (NLR) and C-Type Lectin Receptor (CLR) stimulation were tested by assessing NF-κB activation in HEK293 cells expressing a given TLR, NLR or CLR. The activity of the test articles was tested at one concentration and compared to control ligands. These steps were performed in triplicate. hNOD2: L18-MDP at 100 ng/mL Antagonist: 50 ng/mL. In a 96-well plate (200 μL total volume) containing the appropriate cells (50,000-75,000 cells/well), 20 μL of the test article or the positive control ligand was added to the wells. For the antagonist assay, the test article was incubated with the cells, at 37° C. with 5% CO2, for 30 minutes prior to the addition of the positive control ligand to the wells. The media added to the wells was designed for the detection of NF-κB induced SEAP expression. After a 16-24 hr incubation the optical density (OD) was read at 650 nm on a Molecular Devices SpectraMax 340PC absorbance detector. Fold induction (ratio of average induced value to average non-induced value) was determined for each TLR, NOD1, NOD2, Dectin-1a, Dectin-1b.

T1 sequence (Q9HC29 whole entry): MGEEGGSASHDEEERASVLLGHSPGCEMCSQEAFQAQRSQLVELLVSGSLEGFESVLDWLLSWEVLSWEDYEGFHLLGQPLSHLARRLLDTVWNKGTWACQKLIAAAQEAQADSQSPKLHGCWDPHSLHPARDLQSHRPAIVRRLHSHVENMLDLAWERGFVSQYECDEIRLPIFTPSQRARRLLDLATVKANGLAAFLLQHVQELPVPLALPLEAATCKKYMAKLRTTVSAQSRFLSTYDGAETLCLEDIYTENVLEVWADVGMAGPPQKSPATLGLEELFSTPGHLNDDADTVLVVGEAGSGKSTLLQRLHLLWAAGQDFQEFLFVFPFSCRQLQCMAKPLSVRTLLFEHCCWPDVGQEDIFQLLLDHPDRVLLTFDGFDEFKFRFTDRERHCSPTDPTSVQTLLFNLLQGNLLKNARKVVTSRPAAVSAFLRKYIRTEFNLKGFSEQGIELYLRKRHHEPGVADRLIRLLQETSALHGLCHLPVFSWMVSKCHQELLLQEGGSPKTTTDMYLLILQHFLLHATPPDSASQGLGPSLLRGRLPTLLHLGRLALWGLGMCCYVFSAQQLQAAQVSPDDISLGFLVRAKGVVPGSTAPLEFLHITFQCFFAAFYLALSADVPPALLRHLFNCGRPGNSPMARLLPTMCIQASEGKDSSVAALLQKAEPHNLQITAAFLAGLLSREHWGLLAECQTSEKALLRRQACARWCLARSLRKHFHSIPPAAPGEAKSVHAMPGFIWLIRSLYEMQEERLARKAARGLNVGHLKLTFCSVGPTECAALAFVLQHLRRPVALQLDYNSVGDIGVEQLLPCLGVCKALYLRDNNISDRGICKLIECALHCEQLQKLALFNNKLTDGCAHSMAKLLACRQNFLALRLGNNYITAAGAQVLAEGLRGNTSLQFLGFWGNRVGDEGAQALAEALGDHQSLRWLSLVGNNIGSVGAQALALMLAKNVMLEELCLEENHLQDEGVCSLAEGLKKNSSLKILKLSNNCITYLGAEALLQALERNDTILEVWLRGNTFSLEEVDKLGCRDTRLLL

**Q.** Which “spinal glial activation induced by intrauterine LPS” value [1] does the source give for `CN(C)CCC=C1c2ccccc2CCc2ccccc21` [Amitriptyline] here?
**A.** additional activity reducing spinal glial activation above TAK-242 alone

**Q.** What about the “spinal glial activation induced by intrauterine LPS” value ([1]; listed as amitriptyline) of the same molecule?
**A.** prevented

**Q.** What about the “dose effective at reducing spinal glial activation” value ([1]; mouse model, intrauterine administration) of the same molecule?
**A.** 0.027 mg/kg

**Q.** What about the Grimace scores [2] of the same molecule?
**A.** reduced these scores

**Q.** And the “Fold Induction” value (Human NOD2)?
**A.** slight inhibitory effect

**Q.** And the “Fold Induction” value (Human NOD2; listed as Ami)?
**A.** 17
